Laboratory results reported in paper PMC4925259 (Molecular microbiology, 2016).

Biological target: cytochrome bo oxidase (Escherichia coli, UniProt P0ABI8)
Assay type: biochemical

Sequence of cytochrome bo oxidase (P0ABI8 whole entry): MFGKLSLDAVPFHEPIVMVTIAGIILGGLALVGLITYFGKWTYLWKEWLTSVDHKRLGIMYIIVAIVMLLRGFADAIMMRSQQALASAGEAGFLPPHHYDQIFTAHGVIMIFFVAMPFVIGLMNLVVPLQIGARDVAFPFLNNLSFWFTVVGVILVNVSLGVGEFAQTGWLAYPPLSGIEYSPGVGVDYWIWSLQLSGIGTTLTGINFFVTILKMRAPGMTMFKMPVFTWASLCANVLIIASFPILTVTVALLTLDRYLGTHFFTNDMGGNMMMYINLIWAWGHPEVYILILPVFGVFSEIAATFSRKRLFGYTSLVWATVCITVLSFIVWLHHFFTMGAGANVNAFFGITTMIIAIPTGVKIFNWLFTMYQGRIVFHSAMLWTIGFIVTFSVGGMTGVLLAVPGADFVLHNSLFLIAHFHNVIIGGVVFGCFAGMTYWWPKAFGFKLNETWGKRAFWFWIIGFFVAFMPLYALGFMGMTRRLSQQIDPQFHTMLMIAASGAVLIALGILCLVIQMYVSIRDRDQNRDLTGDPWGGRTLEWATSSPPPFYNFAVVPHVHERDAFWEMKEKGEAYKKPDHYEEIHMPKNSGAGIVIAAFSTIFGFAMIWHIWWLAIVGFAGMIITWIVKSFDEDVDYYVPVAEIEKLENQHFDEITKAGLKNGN
Sequence of cytochrome bo oxidase (P0ABJ1 25-315 partner): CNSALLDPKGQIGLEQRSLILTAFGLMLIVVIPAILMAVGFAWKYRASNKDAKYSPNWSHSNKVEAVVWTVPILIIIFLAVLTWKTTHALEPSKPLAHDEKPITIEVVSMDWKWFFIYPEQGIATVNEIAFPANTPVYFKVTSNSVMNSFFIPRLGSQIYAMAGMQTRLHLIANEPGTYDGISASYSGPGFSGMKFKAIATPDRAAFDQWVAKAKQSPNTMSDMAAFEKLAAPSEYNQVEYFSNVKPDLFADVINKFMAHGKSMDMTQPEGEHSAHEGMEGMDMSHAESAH
Sequence of cytochrome bo oxidase (P0ABJ3 whole entry partner): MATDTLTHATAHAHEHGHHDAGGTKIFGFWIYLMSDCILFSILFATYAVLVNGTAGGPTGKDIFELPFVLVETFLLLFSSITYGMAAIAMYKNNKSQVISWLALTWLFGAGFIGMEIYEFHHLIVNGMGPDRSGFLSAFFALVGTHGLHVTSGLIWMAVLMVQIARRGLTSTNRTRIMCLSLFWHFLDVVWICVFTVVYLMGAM
Sequence of cytochrome bo oxidase (P0ABJ6 whole entry partner): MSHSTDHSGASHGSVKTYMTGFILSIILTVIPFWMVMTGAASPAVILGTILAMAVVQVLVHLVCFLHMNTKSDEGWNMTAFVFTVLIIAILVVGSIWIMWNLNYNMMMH

S [hydrogen sulfide]
IC50: ~5 µM
